Results: patent US12691109B2, “Bifunctional aggregation-induced emission luminogen for monitoring and killing of multidrug-resistant bacteria” (The Hong Kong University of Science and Technology, priority 2018, dated 2026)

Tests used:
Assay in all cases: Antibacterial activity, MIC
Type in all cases: cell-based
MDR S. aureus = details: clinical MDR isolate
MDR S. epidermidis = details: clinical MDR isolate
S. aureus = details: laboratory-sensitive strain
MDR K. pneumoniae = details: clinical MDR isolate
K. pneumoniae = details: laboratory-sensitive strain
E. coli = details: laboratory-sensitive strain
MDR E. coli = details: clinical MDR isolate
S. epidermidis = details: laboratory-sensitive strain

Gentamicin
MIC, MDR S. aureus (MDR S. aureus): >128 µg/mL | MIC, MDR S. epidermidis (MDR S. epidermidis): <2 µg/mL | MIC, S. aureus (S. aureus): <2 µg/mL | MIC, MDR K. pneumoniae (MDR K. pneumoniae): >128 µg/mL | MIC, K. pneumoniae (K. pneumoniae): <2 µg/mL | MIC, E.coli (E. coli): <2 µg/mL | MIC, MDR E.coli (MDR E. coli): >128 µg/mL | MIC, S. epidermidis (S. epidermidis): <2 µg/mL

Penicilin
MIC, MDR S. aureus (MDR S. aureus): 64 µg/mL | MIC, MDR S. epidermidis (MDR S. epidermidis): >32 µg/mL | MIC, S. aureus (S. aureus): <2 µg/mL | MIC, MDR K. pneumoniae (MDR K. pneumoniae): >128 µg/mL | MIC, K. pneumoniae (K. pneumoniae): 32 µg/mL | MIC, E.coli (E. coli): <2 µg/mL | MIC, MDR E.coli (MDR E. coli): >128 µg/mL | MIC, S. epidermidis (S. epidermidis): <2 µg/mL

Polymyxin
MIC, MDR S. aureus (MDR S. aureus): >128 µg/mL | MIC, MDR S. epidermidis (MDR S. epidermidis): >128 µg/mL | MIC, S. aureus (S. aureus): >128 µg/mL | MIC, MDR K. pneumoniae (MDR K. pneumoniae): 64 µg/mL | MIC, MDR K. pneumoniae (MDR K. pneumoniae; listed as polymyxin): > 64 µg/mL | MIC, K. pneumoniae (K. pneumoniae): <2 µg/mL | MIC, E.coli (E. coli): 16 µg/mL | MIC, MDR E.coli (MDR E. coli): 32 µg/mL | MIC, MDR E.coli (MDR E. coli; listed as polymyxin): > 32 µg/mL | MIC, S. epidermidis (S. epidermidis): 64 µg/mL
